Measured values reported in patent publication US20200360331A1, “COMPOSITIONS COMPRISING 15-HEPE AND/OR 15-HETrE AND METHODS OF TREATING OR PREVENTING CARDIOMETABOLIC DISEASE, METABOLIC SYNDROME, AND/OR RELATED DISEASES” (Afimmune Limited, priority 2019, published 2020).
“Also recorded” adds a separate entry of the source.

Key:
Alpha-SMA = experiment: UUO study: quantitative RT-PCR of kidney, Alpha-SMA; format: in vivo, C57BL/6 mice; details: UUO mice kidney
Method: Quantitative RT-PCR: Total ribonucleic acid (RNA) was extracted from kidney samples using RNAiso (Takara Bio, Japan) according to the manufacturer's instructions. One μg of RNA was reverse-transcribed using a reaction mixture containing […] (mM) of magnesium chloride (MgCl2) (F. Hoffmann-La Roche, Switzerland), 40 U RNase inhibitor (Toyobo, Japan), 0.5 mM dNTP (Promega, USA), 6.28 μM random hexamer (Promega), 5× first strand buffer (Promega), 10 mM dithiothreitol (Invitrogen, USA) and 200 U MMLV-RT (Invitrogen) in a final volume of 20 μL. The reaction was carried out for 1 hour at 37° C., followed by 5 minutes at 99° C. Real-time PCR was performed using real-time PCR DICE and TB Green™ Premix Ex Taq™ II (Takara Bio). To calculate the relative […] (mRNA) expression level, the expression of each gene (e.g., α-SMA, TIMP-1, TGF-β and Collagen Type 1) was normalized to that of reference gene 36B4 (gene symbol: Rplp0). Information regarding the PCR-primer sets and the plate layout are described in Tables 1 and 2.

BDL-operated mice = experiment: BDL study: Sirius red staining of liver sections, fibrosis area; format: in vivo, C57BL/6J mice
Method: BDL Surgery: On Day 0 of the study, BDL surgery was performed under pentobarbital (Kyoritsu Seiyaku, Japan) anesthesia. The mouse's hair was first shaved, the abdominal cavity cut open, and the common bile duct was ligated twice with 7-0 surgical silk. The mouse's peritoneum and the skin were closed with sutures, and the mice were transferred to a clean cage (e.g., resting cage) until recovered from anesthesia. Sham operated mice had their common bile duct exposed but not ligated.
[…]: To visualize collagen deposition, Bouin's fixed liver sections were stained using picro-Sirius red solution (Waldeck, Germany). For quantitative analysis of fibrosis area, bright field images of Sirius red-stained sections were captured using a digital camera (DFC295, Leica, Germany) at 100-fold magnification, and the positive areas in 5 fields/section were measured using ImageJ software (National Institute of Health, USA).

[1] = test system: TGF-β induced epithelial mesenchymal transition (EMT) protein production; experiment: TGF-β induced EMT protein production in HepG2 cells; format: cell-based, human; details: increasing doses for 1 hour, then 200 pM TGF-β for 48 hours, listed as 15-HEPE
Method: The effects of 15-HEPE on TGF-β-induced signaling and cellular responses were determined. To test the effect of 15-HEPE on TGF-β-induced signaling, the activities of 15-HEPE to regulate TGF-β-stimulated Smad2 phosphorylation and nuclear translocation, both of which are key signaling events leading to TGF-β-induced cellular responses, were tested. One important biological activity of TGF-β is transcriptional activation of genes responsible for epithelial-mesenchymal transition (EMT), which is a crucial event in wound healing, tissue fibrosis, and cancer progression. The effect of 15-HEPE on TGFβ-induced epithelial mesenchymal transition related proteins (such as fibronectin, PAI-1, and N-cadherin etc.) expression in HepG2 and […] cells were assessed. HepG2 cells (human hepatoma cell line) were treated in increasing doses of 15-HEPE stage II in DMEM containing 0.1% of FBS for 1 hour and continually stimulated with or without 200 picomolar (pM) of TGF-β for 48 hours.
HepG2 cells (human hepatoma cell line) were treated in increasing doses of 15-HEPE stage II in DMEM containing 0.1% of FBS for 1 hour and continually stimulated with or without 200 picomolar (pM) of TGF-β for 48 hours. The two panels shown in FIG. 18A are two separate experiments run under the same experimental conditions.

NAFLD patients = experiment: Phase IIa NAFLD study: alkaline phosphate (ALP); format: in vivo, human; details: 2 g
Method: The study was planned to include 96 evaluable patients with 32 patients randomized per treatment group.
Clinical Laboratory Safety Tests: Safety tests were performed for hematology, serum biochemistry, coagulation, lipid profile, and urinalysis: Blood and urine samples were taken as per the Study Flow Chart in Table 19 for routine hematology, serum biochemistry, coagulation and urinalysis tests, along with a Lipid Profile. All samples were analyzed in the central laboratory. All subjects were fasted for a minimum of 8 hours prior to blood sampling. […]

SMILES: CC/C=C\CC(O)/C=C/C=C\C/C=C\C/C=C\CCCC(=O)O (stereo not shown) [DS102, 15-hydroxy-eicosa-5Z,8Z,11Z,13E,17Z-pentaenoic acid]
- Alpha-SMA gene expression (Alpha-SMA; relative mRNA normalized to 36B4, 50 mg/kg PO QD Day 0-13): 3.74 ± 0.81
- Alpha-SMA gene expression (Alpha-SMA; relative mRNA normalized to 36B4, 500 mg/kg PO QD Day 0-13): 5.54 ± 1.54
- fibrosis area compared with the Vehicle group (BDL-operated mice; BDL mice liver, 500 mg/kg): tended to decrease; also recorded: trend approaching significance
- fibrosis area compared with the Vehicle group (BDL-operated mice; BDL mice, liver, 50 mg/kg): no significant difference
- Sirius red-positive area (BDL-operated mice; BDL mice, liver, 50 mg/kg PO QD Day 0-13, Day 14): 1.70 ± 0.63%
- fibrosis area compared with the Vehicle group (BDL-operated mice; BDL mice, liver, 250 mg/kg): significant decrease
- Sirius red-positive area (BDL-operated mice; BDL mice, liver, 250 mg/kg PO QD Day 0-13, Day 14): 1.06 ± 0.48%
- Sirius red-positive area (BDL-operated mice; BDL mice, liver, 500 mg/kg PO QD Day 0-13, Day 14): 1.42 ± 0.60%
- TGF-β induced EMT (pro-fibrotic) protein production [1]: blocks TGF-β induced EMT protein production; also recorded: blocked TGF-β induced pro-fibrotic protein production
- alkaline phosphate (ALP) (NAFLD patients): reduced
